Data reported in ChEMBL document CHEMBL1133057, “Synthesis and in vitro antibacterial activity of 3-[N-methyl-N-(3-methyl-1,3-thiazolium-2-yl)aminolmethyl cephalosporin derivatives” (2000).
≈ marks a conversion by molar mass, not a printed value.

Key:
Escherichia coli [1] = assay: Compound was tested in vitro for its minimum inhibitory concentration by serial 2-fold agar dilution Muller Hinton method against Escherichia coli 1507E; assay type: functional
Staphylococcus aureus [2] = assay: Compound was tested in vitro for its minimum inhibitory concentration by serial 2-fold agar dilution Muller Hinton method against Staphylococcus aureus SG511; assay type: functional
Enterobacter cloacae [3] = assay: Compound was tested in vitro for its minimum inhibitory concentration by serial 2-fold agar dilution Muller Hinton method against Enterobacter cloacae P99; assay type: functional
Staphylococcus aureus [4] = assay: Compound was tested in vitro for its minimum inhibitory concentration by serial 2-fold agar dilution Muller Hinton method against Staphylococcus aureus 503; assay type: functional
Enterobacter cloacae [5] = assay: Compound was tested in vitro for its minimum inhibitory concentration by serial 2-fold agar dilution Muller Hinton method against Enterobacter cloacae 1321; assay type: functional
Pseudomonas aeruginosa [6] = assay: Compound was tested in vitro for its minimum inhibitory concentration by serial 2-fold agar dilution Muller Hinton method against Pseudomonas aeruginosa 1771; assay type: functional
Escherichia coli [7] = assay: Compound was tested in vitro for its minimum inhibitory concentration by serial 2-fold agar dilution Muller Hinton method against Escherichia coli DC 2; assay type: functional
Streptococcus pyogenes [8] = assay: Compound was tested in vitro for its minimum inhibitory concentration by serial 2-fold agar dilution Muller Hinton method against Streptococcus pyogenes 8b; assay type: functional
Staphylococcus aureus [9] = assay: Compound was tested in vitro for its minimum inhibitory concentration by serial 2-fold agar dilution Muller Hinton method against Staphylococcus aureus 285; assay type: functional
Pseudomonas aeruginosa [10] = assay: Compound was tested in vitro for its minimum inhibitory concentration by serial 2-fold agar dilution Muller Hinton method against Pseudomonas aeruginosa 1592 E; assay type: functional
Escherichia coli [11] = assay: Compound was tested in vitro for its minimum inhibitory concentration by serial 2-fold agar dilution Muller Hinton method against Escherichia coli O 55; assay type: functional
Escherichia coli [12] = assay: Compound was tested in vitro for its minimum inhibitory concentration by serial 2-fold agar dilution Muller Hinton method against Escherichia coli DC 0; assay type: functional
Klebsiella oxytoca = assay: Compound was tested in vitro for its minimum inhibitory concentration by serial 2-fold agar dilution Muller Hinton method against Klebsiella oxytoca 1082 E; assay type: functional
Pseudomonas aeruginosa [13] = assay: Compound was tested in vitro for its minimum inhibitory concentration by serial 2-fold agar dilution Muller Hinton method against Pseudomonas aeruginosa 9027; assay type: functional
Pseudomonas aeruginosa [14] = assay: Compound was tested in vitro for its minimum inhibitory concentration by serial 2-fold agar dilution Muller Hinton method against Pseudomonas aeruginosa 1771 M; assay type: functional
Streptococcus pyogenes [15] = assay: Compound was tested in vitro for its minimum inhibitory concentration by serial 2-fold agar dilution Muller Hinton method against Streptococcus pyogenes A77; assay type: functional
Streptococcus pyogenes [16] = assay: Compound was tested in vitro for its minimum inhibitory concentration by serial 2-fold agar dilution Muller Hinton method against Streptococcus pyogenes A 308; assay type: functional
Escherichia coli [17] = assay: Compound was tested in vitro for its minimum inhibitory concentration by serial 2-fold agar dilution Muller Hinton method against Escherichia coli TEM; assay type: functional
Klebsiella aerogenes = assay: Compound was tested in vitro for its minimum inhibitory concentration by serial 2-fold agar dilution Muller Hinton method against Klebsiella aerogenes 1522 E; assay type: functional
Salmonella typhimurium = assay: Compound was tested in vitro for its minimum inhibitory concentration by serial 2-fold agar dilution Muller Hinton method against Salmonella Typhimurium; assay type: functional, Salmonella enterica subsp. enterica serovar Typhimurium; settings: Salmonella enterica

Row | Structure (SMILES) | MIC (Escherichia coli [1]) [µg/mL] | MIC (Staphylococcus aureus [2]) [µg/mL] | MIC (Enterobacter cloacae [3]) [µg/mL] | MIC (Staphylococcus aureus [4]) [µg/mL] | MIC (Enterobacter cloacae [5]) [µg/mL] | MIC (Pseudomonas aeruginosa [6]) [µg/mL] | MIC (Escherichia coli [7]) [µg/mL] | MIC (Streptococcus pyogenes [8]) [µg/mL] | MIC (Staphylococcus aureus [9]) [µg/mL] | MIC (Pseudomonas aeruginosa [10]) [µg/mL] | MIC (Escherichia coli [11]) [µg/mL] | MIC (Escherichia coli [12]) [µg/mL] | MIC (Klebsiella oxytoca) [µg/mL] | MIC (Pseudomonas aeruginosa [13]) [µg/mL] | MIC (Pseudomonas aeruginosa [14]) [µg/mL] | MIC (Streptococcus pyogenes [15]) [µg/mL] | MIC (Streptococcus pyogenes [16]) [µg/mL] | MIC (Escherichia coli [17]) [µg/mL] | MIC (Klebsiella aerogenes) [µg/mL] | MIC (Salmonella typhimurium) [µg/mL]
1 | CCO/N=C(\C(=O)NC1C(=O)N2C(C(=O)[O-])=C(CN(C)c3sc4c([n+]3C)CCCC4)CSC12)c1csc(N)n1 (stereo not given) | 0.195 (≈ 0.33 µM) | 0.391 (≈ 0.661 µM) | 6.25 (≈ 10.6 µM) | 0.195 (≈ 0.33 µM) | 0.049 (≈ 0.0828 µM) | 6.25 (≈ 10.6 µM) | 0.025 (≈ 0.0422 µM) | 25 (≈ 42.2 µM) | 0.781 (≈ 1.32 µM) | 25 (≈ 42.2 µM) | 0.049 (≈ 0.0828 µM) | 0.098 (≈ 0.166 µM) | 3.12 (≈ 5.28 µM) | 25 (≈ 42.2 µM) | 0.391 (≈ 0.661 µM) | 0.007 (≈ 0.0118 µM) | 0.013 (≈ 0.022 µM) | 0.195 (≈ 0.33 µM) | 0.098 (≈ 0.166 µM) | 0.098 (≈ 0.166 µM)
2 | CO/N=C(\C(=O)N[C@@H]1C(=O)N2C(C(=O)O)=C(COC(C)=O)CS[C@H]12)c1csc(N)n1 [CEFOTAXIME] | 0.025 (≈ 0.0549 µM) | 1.56 (≈ 3.43 µM) | 100 (≈ 220 µM) | 0.781 (≈ 1.71 µM) | 0.007 (≈ 0.0154 µM) | 3.12 (≈ 6.86 µM) | 0.013 (≈ 0.0285 µM) | 100 (≈ 220 µM) | 3.12 (≈ 6.86 µM) | 12.5 (≈ 27.4 µM) | 0.007 (≈ 0.0154 µM) | 0.025 (≈ 0.0549 µM) | 1.56 (≈ 3.43 µM) | 25 (≈ 54.9 µM) | 0.098 (≈ 0.215 µM) | 0.002 (≈ 0.00439 µM) | 0.007 (≈ 0.0154 µM) | 0.025 (≈ 0.0549 µM) | 0.025 (≈ 0.0549 µM) | 0.025 (≈ 0.0549 µM)
3 | CO/N=C(\C(=O)N[C@@H]1C(=O)N2C(C(=O)[O-])=C(C[n+]3cccc4c3CCC4)CS[C@H]12)c1csc(N)n1 [CEFPIROME] | 0.025 (≈ 0.0486 µM) | 0.391 (≈ 0.76 µM) | 3.12 (≈ 6.07 µM) | 0.098 (≈ 0.19 µM) | 0.013 (≈ 0.0253 µM) | 0.781 (≈ 1.52 µM) | 0.049 (≈ 0.0952 µM) | 1.56 (≈ 3.04 µM) | 0.781 (≈ 1.52 µM) | 1.56 (≈ 3.04 µM) | 0.025 (≈ 0.0486 µM) | 0.013 (≈ 0.0253 µM) | 1.56 (≈ 3.04 µM) | 3.12 (≈ 6.07 µM) | 0.391 (≈ 0.76 µM) | 0.007 (≈ 0.0136 µM) | 0.007 (≈ 0.0136 µM) | 0.049 (≈ 0.0952 µM) | 0.025 (≈ 0.0486 µM) | 0.025 (≈ 0.0486 µM)

Further lines, results first:

Row | MIC (Escherichia coli [1]) [µg/mL] | MIC (Staphylococcus aureus [2]) [µg/mL] | MIC (Enterobacter cloacae [3]) [µg/mL] | MIC (Staphylococcus aureus [4]) [µg/mL] | MIC (Enterobacter cloacae [5]) [µg/mL] | MIC (Pseudomonas aeruginosa [6]) [µg/mL] | MIC (Escherichia coli [7]) [µg/mL] | MIC (Streptococcus pyogenes [8]) [µg/mL] | MIC (Staphylococcus aureus [9]) [µg/mL] | MIC (Pseudomonas aeruginosa [10]) [µg/mL] | MIC (Escherichia coli [11]) [µg/mL] | MIC (Escherichia coli [12]) [µg/mL] | MIC (Klebsiella oxytoca) [µg/mL] | MIC (Pseudomonas aeruginosa [13]) [µg/mL] | MIC (Pseudomonas aeruginosa [14]) [µg/mL] | MIC (Streptococcus pyogenes [15]) [µg/mL] | MIC (Streptococcus pyogenes [16]) [µg/mL] | MIC (Escherichia coli [17]) [µg/mL] | MIC (Klebsiella aerogenes) [µg/mL] | MIC (Salmonella typhimurium) [µg/mL] | Structure (SMILES)
4 | 0.098 (≈ 0.154 µM) | 0.781 (≈ 1.23 µM) | 25 (≈ 39.3 µM) | 0.391 (≈ 0.615 µM) | 0.025 (≈ 0.0393 µM) | 3.12 (≈ 4.92 µM) | 0.025 (≈ 0.0393 µM) | 50 (≈ 78.6 µM) | 1.56 (≈ 2.46 µM) | 12.5 (≈ 19.7 µM) | 0.025 (≈ 0.0393 µM) | 0.098 (≈ 0.154 µM) | 6.25 (≈ 9.83 µM) | 25 (≈ 39.3 µM) | 0.391 (≈ 0.615 µM) | 0.013 (≈ 0.0204 µM) | 0.013 (≈ 0.0204 µM) | 0.098 (≈ 0.154 µM) | 0.049 (≈ 0.0771 µM) | 0.049 (≈ 0.0771 µM) | C=CCO/N=C(\C(=O)NC1C(=O)N2C(C(=O)[O-])=C(CN(C)c3sc(C(=O)OCC)c(C)[n+]3C)CSC12)c1csc(N)n1 (stereo not given)
5 | 0.049 (≈ 0.0911 µM) | 0.781 (≈ 1.45 µM) | 25 (≈ 46.5 µM) | 0.781 (≈ 1.45 µM) | 0.013 (≈ 0.0242 µM) | 12.5 (≈ 23.2 µM) | 0.049 (≈ 0.0911 µM) | > 100 | 1.56 (≈ 2.91 µM) | 25 (≈ 46.5 µM) | 0.025 (≈ 0.0465 µM) | 0.049 (≈ 0.0911 µM) | 6.25 (≈ 11.6 µM) | 25 (≈ 46.5 µM) | 1.56 (≈ 2.91 µM) | 0.004 (≈ 0.00744 µM) | 0.013 (≈ 0.0242 µM) | 0.049 (≈ 0.0911 µM) | 0.049 (≈ 0.0911 µM) | 0.049 (≈ 0.0911 µM) | CO/N=C(\C(=O)NC1C(=O)N2C(C(=O)[O-])=C(CN(C)c3scc(C)[n+]3C)CSC12)c1csc(N)n1 (stereo not given)
6 | 0.049 (≈ 0.0888 µM) | 1.56 (≈ 2.83 µM) | 12.5 (≈ 22.7 µM) | 0.781 (≈ 1.42 µM) | 0.013 (≈ 0.0236 µM) | 25 (≈ 45.3 µM) | 0.098 (≈ 0.178 µM) | > 100 | 1.56 (≈ 2.83 µM) | 50 (≈ 90.6 µM) | 0.025 (≈ 0.0453 µM) | 0.049 (≈ 0.0888 µM) | 6.25 (≈ 11.3 µM) | 50 (≈ 90.6 µM) | 1.56 (≈ 2.83 µM) | 0.007 (≈ 0.0127 µM) | 0.013 (≈ 0.0236 µM) | 0.049 (≈ 0.0888 µM) | 0.098 (≈ 0.178 µM) | 0.098 (≈ 0.178 µM) | CO/N=C(\C(=O)NC1C(=O)N2C(C(=O)[O-])=C(CN(C)c3sc(C)c(C)[n+]3C)CSC12)c1csc(N)n1 (stereo not given)
7 | 0.195 (≈ 0.346 µM) | 0.391 (≈ 0.694 µM) | 25 (≈ 44.4 µM) | 0.195 (≈ 0.346 µM) | 0.098 (≈ 0.174 µM) | 6.25 (≈ 11.1 µM) | 0.025 (≈ 0.0444 µM) | 25 (≈ 44.4 µM) | 0.781 (≈ 1.39 µM) | 12.5 (≈ 22.2 µM) | 0.049 (≈ 0.0869 µM) | 0.195 (≈ 0.346 µM) | 12.5 (≈ 22.2 µM) | 25 (≈ 44.4 µM) | 0.195 (≈ 0.346 µM) | 0.007 (≈ 0.0124 µM) | 0.013 (≈ 0.0231 µM) | 0.195 (≈ 0.346 µM) | 0.098 (≈ 0.174 µM) | 0.098 (≈ 0.174 µM) | C=CCO/N=C(\C(=O)NC1C(=O)N2C(C(=O)[O-])=C(CN(C)c3scc(C)[n+]3C)CSC12)c1csc(N)n1 (stereo not given)
